Laboratory results published in ChEMBL document CHEMBL5241120, “Insights into the medicinal chemistry of heterocycles integrated with a pyrazolo[1,5-a]pyrimidine scaffold” (RSC Med Chem, 2022).
Values after ≈ are worked out from the molar mass of the structure shown.

What was measured:
[1] = system: Escherichia coli; assay: Antibacterial activity against Escherichia coli assessed as zone of inhibition; format: functional
[2] = system: Bacillus subtilis; assay: Antibacterial activity against Bacillus subtilis assessed as zone of inhibition; format: functional
[3] = system: Candida albicans; assay: Antifungal activity against Candida albicans assessed as zone of inhibition; format: functional
[4] = system: MCF7; assay: Cytotoxicity against human MCF7 cells by SRB assay; format: functional, cell-based
[5] = system: HepG2; assay: Cytotoxicity against human HepG2 cells by MTT assay; format: functional, cell-based
[6] = system: MCF7; assay: Cytotoxicity against human MCF7 cells by MTT assay; format: functional, cell-based
[7] = system: HCT-116; assay: Cytotoxicity against human HCT-116 cells by MTT assay; format: functional, cell-based
[8] = system: Aspergillus niger; assay: Antifungal activity against Aspergillus niger by dry weight method; format: functional
[9] = system: Aspergillus flavus; assay: Antifungal activity against Aspergillus flavus by dry weight method; format: functional; design: unit not given beside the values
[10] = system: Fusarium verticillioides; assay: Antifungal activity against Fusarium moniliforme by dry weight method; format: functional
[11] = system: Bacillus subtilis; assay: Antibacterial activity against Bacillus subtilis; format: functional
[12] = system: Staphylococcus aureus; assay: Antibacterial activity against Staphylococcus aureus; format: functional
[13] = system: Escherichia coli; assay: Antibacterial activity against Escherichia coli; format: functional
[14] = system: Pseudomonas aeruginosa; assay: Antibacterial activity against Pseudomonas aeruginosa; format: functional
[15] = system: Salmonella enterica; assay: Antibacterial activity against Salmonella enterica assessed as zone of inhibition; format: functional
[16] = system: Aspergillus niger; assay: Antifungal activity against Aspergillus niger assessed as zone of inhibition; format: functional
[17] = molecular target: T1, Prostaglandin G/H synthase 1 (Ovis aries, UniProt P05979); assay: Inhibition of ovine COX-1
T1 sequence (P05979 whole entry): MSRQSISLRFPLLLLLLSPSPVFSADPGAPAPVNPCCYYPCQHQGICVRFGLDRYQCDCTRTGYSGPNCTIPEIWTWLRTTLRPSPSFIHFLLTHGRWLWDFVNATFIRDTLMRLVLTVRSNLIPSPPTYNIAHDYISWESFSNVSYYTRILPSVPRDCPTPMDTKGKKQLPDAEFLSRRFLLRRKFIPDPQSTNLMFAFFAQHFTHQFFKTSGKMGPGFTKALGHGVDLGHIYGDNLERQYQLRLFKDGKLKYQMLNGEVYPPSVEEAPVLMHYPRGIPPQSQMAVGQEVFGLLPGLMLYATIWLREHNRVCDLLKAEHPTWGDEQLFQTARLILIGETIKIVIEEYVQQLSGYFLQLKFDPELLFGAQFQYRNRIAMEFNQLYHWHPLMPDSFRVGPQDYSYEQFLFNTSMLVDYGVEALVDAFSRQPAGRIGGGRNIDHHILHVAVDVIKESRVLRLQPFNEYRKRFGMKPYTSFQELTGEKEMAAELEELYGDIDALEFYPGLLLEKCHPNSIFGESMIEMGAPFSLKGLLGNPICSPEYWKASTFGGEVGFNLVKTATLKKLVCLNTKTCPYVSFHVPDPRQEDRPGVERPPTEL

[18] = Inhibition of soybean 15-LOX; design: species or system Glycine max
[19] = system: Rattus norvegicus; assay: Antiinflammatory activity in rat assessed as inhibition of carrageenan induced paw edema at 50 mg/kg; format: functional; design: scale not given: the % may be the effect or the level left
[20] = system: Staphylococcus aureus; assay: Antibacterial activity against Staphylococcus aureus assessed as zone of inhibition; format: functional
[21] = system: Rattus norvegicus; assay: Analgesic activity in Sprague-Dawley rat at 15 mg/kg after 2 hrs by hot plate test; format: functional
[22] = system: Pseudomonas aeruginosa; assay: Antibacterial activity against Pseudomonas aeruginosa assessed as zone of inhibition; format: functional
[23] = system: CHO-K1; assay: Cytotoxicity against CHO-K1 cells by MTT assay; format: toxicity, cell-based, Cricetulus griseus; design: concentration or dose not given beside the values; settings: chinese hamster

Cc1cc(-n2ncc(C#N)c2N)n2ncc(C#N)c2n1
inhibition zone (IZ) [1]: 14.2 mm | inhibition zone (IZ) [2]: 16.1 mm | inhibition zone (IZ) [3]: 17.1 mm

O=C(C1=CN=C2CC(O)=NN2C1P(=O)(OCCCl)OCCCl)c1ccccc1O (stereo not given)
IC50 [4]: 39.7 µg/mL (≈ 85.9 µM)

Nc1nc2c(/N=N/c3ccc(C(F)(F)F)cc3)c(N)nn2c(N)c1/N=N/c1ccc(S(=O)(=O)Nc2ncccn2)cc1
IC50 [5]: 3.4 µg/mL (≈ 5.69 µM) | IC50 [6]: 1.4 µg/mL (≈ 2.34 µM) | IC50 [7]: 2.4 µg/mL (≈ 4.02 µM)

CSc1nn2c(C)cc(=O)[nH]c2c1-c1nc2ccccc2n1C
Activity [8]: 0.26 | Activity [9]: 0.16 | Activity [10]: 0.12

COc1ccc(Nc2nn3c(-c4ccccc4)ccnc3c2C(N)=O)cc1
MIC [11]: 3.9 µg/mL (≈ 10.9 µM) | MIC [12]: 7.81 µg/mL (≈ 21.7 µM) | MIC [13]: 15.6 µg/mL (≈ 43.5 µM) | MIC [14]: 7.81 µg/mL (≈ 21.7 µM)

O=C(Nc1ccccc1)c1cnn2c(-c3ccncc3)ccnc12
inhibition zone (IZ) [1]: 12 mm | inhibition zone (IZ) [15]: 23 mm

O=C(Nc1ccccc1)c1cnn2ccc(-c3ccccn3)nc12
inhibition zone (IZ) [15]: 20 mm

COc1ccc(Nc2nn3c(N)c(C#N)c(-c4cccc(C)c4)nc3c2C(=O)Nc2ccc(Cl)cc2)cc1
inhibition zone (IZ) [16]: 15 mm

CCOc1cc(N)n2nc(Nc3cc(OC)ccn3)c(C#N)c2n1
IC50 [17]: 8.5 µM | IC50 [18]: 8.2 µM | Activity [19]: 46%

CCOc1cc(C)nc2c(C#N)c(Nc3cc(OC)ccn3)nn12
IC50 [17]: 7.9 µM | IC50 [18]: 8.4 µM | Activity [19]: 46%

CC1(C)S[C@@H]2[C@H](NC(=O)[C@H](N)c3ccccc3)C(=O)N2[C@H]1C(=O)O [AMPICILLIN]
inhibition zone (IZ) [20]: 21 mm | inhibition zone (IZ) [1]: 25 mm | inhibition zone (IZ) [2]: 26 mm | inhibition zone (IZ) [15]: 23 mm

COc1ccnc(Nc2nn3c(C)cc(C)nc3c2C#N)c1
IC50 [17]: 8.5 µM | IC50 [18]: 5.6 µM | Activity [19]: 46%

Cc1ccc(N/N=C2\C(=O)n3nc(C)cc3N=C2C(F)(F)F)cc1
Activity [21]: 121.1%

CC(=O)c1cnc2c(C(=O)Nc3ccccc3)cnn2c1C
inhibition zone (IZ) [15]: 16 mm

CC1=Nc2cc(C)nn2C(=O)/C1=N\Nc1ccc(C)cc1
Activity [21]: 96.7%

CN(C)[C@@H]1C(O)=C(C(N)=O)C(=O)[C@@]2(O)C(O)=C3C(=O)c4c(O)cccc4[C@@](C)(O)[C@H]3C[C@@H]12 [TETRACYCLINE]
inhibition zone (IZ) [20]: 25 mm | inhibition zone (IZ) [1]: 23 mm | inhibition zone (IZ) [2]: 25 mm | inhibition zone (IZ) [22]: 20 mm | MIC [11]: 31.2 µg/mL (≈ 70.3 µM) | MIC [12]: 62.5 µg/mL (≈ 141 µM) | MIC [13]: 15.6 µg/mL (≈ 35.1 µM) | MIC [14]: 62.5 µg/mL (≈ 141 µM)

Cc1c(NC(=O)c2cnn3cc(-c4ccccc4)cnc23)c(=O)n(-c2ccccc2)n1C
Activity [23]: 97.1%

COc1ccnc(Nc2nn3c(SC)c(C#N)c(N)nc3c2C#N)c1
IC50 [17]: 10.2 µM | IC50 [18]: 27.3 µM

CC1=CC(c2ccccc2)n2nc(-c3ccccc3)cc2N1 (stereo not given)
IC50 [5]: 0.64 µg/mL (≈ 2.23 µM) | IC50 [6]: 2.79 µg/mL (≈ 9.71 µM) | IC50 [7]: 1.89 µg/mL (≈ 6.58 µM)

CC(=O)O[C@H]1C(=O)[C@@]2(C)[C@H]([C@H](OC(=O)c3ccccc3)[C@]3(O)C[C@H](OC(=O)[C@H](O)[C@@H](NC(=O)c4ccccc4)c4ccccc4)C(C)=C1C3(C)C)[C@]1(OC(C)=O)CO[C@@H]1C[C@@H]2O [PACLITAXEL]
IC50 [5]: 4.3 µg/mL (≈ 5.04 µM) | IC50 [6]: 4.7 µg/mL (≈ 5.5 µM) | IC50 [7]: 2.9 µg/mL (≈ 3.4 µM)

CC/C(=C(\c1ccccc1)c1ccc(OCCN(C)C)cc1)c1ccccc1 [TAMOXIFEN]
IC50 [4]: 8.5 µg/mL (≈ 22.9 µM)

COc1ccc(Nc2nn3c(N)c(C#N)c(-c4ccc(C)cc4)nc3c2C(=O)Nc2ccc(Cl)cc2)cc1
inhibition zone (IZ) [3]: 18 mm | inhibition zone (IZ) [16]: 15 mm

CCOP(=O)(OCC)C1C(C(=O)c2ccccc2O)=CN=C2CC(O)=NN21 (stereo not given)
IC50 [4]: 21.9 µg/mL (≈ 55.7 µM)
